Experimental data taken from paper PMC13022382, “A high-affinity split-HaloTag for live-cell protein labeling” (Nature Communications, 2026).
Residues, ends and D or L forms follow the SMILES beside them. *: point of attachment. Biotin = O=C1N[C@H]2[C@H](CS[C@H]2CCCCC(=O)*)N1

How the values were obtained:
cpHaloΔ3-TMR = assay: Bio-layer interferometry binding kinetics, biotin-Hpep with cpHaloΔ3-TMR; settings: BLI, 25 °C, 1:1 global fit; for Kd: biotin-Hpep 50 nM immobilised, cpHalo∆3-TMR 300–2 nM; for koff / kon: biotin-Hpep, cpHalo∆3-TMR
Experimental: (§1) After incubation, Hpep1 was removed by IMAC purification on a gravity flow column and buffer was exchanged to activity buffer using Amicon Ultra-15 Centrifugal Filter Unit. The protein labeling was verified by SDS-PAGE, comparing Coomassie blue staining and in-gel fluorescence (Supplementary Fig. 19). Protein labeling and Hpep1 removal were further verified by HRMS as previously explained.
(§2) Bio-layer interferometry (BLI) analysis was performed in a 96-well plate using an Octet® R4 system (Sartorius) with an acquisition rate for standard kinetics of 5.0 Hz at 25 °C. […] The raw data was analyzed using Octet® Analysis Studio (Sartorius). For data correction, response curves were baseline-aligned by subtracting the average signal of the baseline step and Savitzky–Golay filtering was used to remove high-frequency noise from the data.

cpHaloΔ3-SiR = assay: Bio-layer interferometry binding kinetics, biotin-Hpep with cpHaloΔ3-SiR; settings: BLI, 25 °C, 1:1 global fit; for Kd: biotin-Hpep 50 nM immobilised, cpHalo∆3-SiR 300–2 nM; for koff / kon: biotin-Hpep, cpHalo∆3-SiR
Experimental: as §1, §2

cpHaloΔ = tested on: cpHaloΔ; parameters: method as in 2 sources, one per row (each row's own in cited_ref): ref 4 (Huppertz et al., Science 2024) ||| ref PhD thesis of Jonas Wilhelm; settings: CA-TMR labeling kinetics, TEVp-cleaved cpHalo∆; 500 nM cpHaloΔ protein, 100 nM CA-TMR (EC50 >1 μM); ref 4 (Huppertz et al., Science 2024); read-out: EC50 for the parental cpHalo∆; cited from earlier work
Chain of cpHaloΔ (P0A3G2 4-141 L47V/S58T/D78G/Y87F/L88M/C128F): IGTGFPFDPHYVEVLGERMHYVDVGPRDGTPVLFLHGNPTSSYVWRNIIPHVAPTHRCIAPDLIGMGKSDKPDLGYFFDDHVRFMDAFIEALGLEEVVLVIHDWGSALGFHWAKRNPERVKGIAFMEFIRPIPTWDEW
Chain of cpHaloΔ (P0A3G2 156-290 E160K/A167V/A172T/K175M/C176G/K195N/A224E/N227D/E257K/T264A/H272N/Y273L): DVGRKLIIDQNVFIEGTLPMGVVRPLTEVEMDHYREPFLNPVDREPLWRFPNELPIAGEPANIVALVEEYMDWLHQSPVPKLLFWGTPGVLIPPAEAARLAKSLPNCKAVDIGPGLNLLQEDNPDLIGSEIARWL

CSCC[C@H](NC(=O)[C@H](CCC(=O)O)NC(=O)[C@H](CCCNC(=N)N)NC(=O)[C@H](Cc1c[nH]c2ccccc12)NC(=O)[C@H](CO)NC(=O)[C@H](Cc1c[nH]c2ccccc12)NC(=O)CNC(=O)[C@H](CCCNC(=N)N)NC(=O)CCCC[C@@H]1SC[C@@H]2NC(=O)N[C@@H]21)C(=O)N[C@@H](Cc1ccccc1)C(=O)N[C@@H](CCCNC(=N)N)C(=O)N[C@@H](CC(C)C)C(=O)N[C@@H](Cc1ccccc1)C(=O)N[C@@H](CCCNC(=N)N)C(=O)N[C@H](C(=O)O)[C@@H](C)O [biotin-Hpep9] (Biotin-RGWSWREMFRLFRT-OH)
Kd (cpHaloΔ3-TMR): 0.00486 µM | koff (cpHaloΔ3-TMR): 0.00104 s⁻¹ | kon (cpHaloΔ3-TMR): 214000 M⁻¹ s⁻¹ | Kd (cpHaloΔ3-SiR): 0.0188 µM | koff (cpHaloΔ3-SiR): 0.00149 s⁻¹ | kon (cpHaloΔ3-SiR): 78900 M⁻¹ s⁻¹

CSCC[C@H](NC(=O)[C@H](CCC(=O)O)NC(=O)[C@H](CCCNC(=N)N)NC(=O)[C@H](Cc1c[nH]c2ccccc12)NC(=O)[C@H](CC(=O)O)NC(=O)[C@H](CCCNC(=N)N)NC(=O)[C@H](CCCCN)NC(=O)[C@H](CO)NC(=O)CCCC[C@@H]1SC[C@@H]2NC(=O)N[C@@H]21)C(=O)N[C@@H](Cc1ccccc1)C(=O)N[C@@H](CCCNC(=N)N)C(=O)N[C@@H](CC(C)C)C(=O)N[C@@H](Cc1ccccc1)C(=O)N[C@@H](CCCNC(=N)N)C(=O)N[C@H](C(=O)O)[C@@H](C)O [biotin-Hpep11] (Biotin-SKRDWREMFRLFRT-OH)
Kd (cpHaloΔ3-TMR): 0.0106 µM | koff (cpHaloΔ3-TMR): 0.000687 s⁻¹ | kon (cpHaloΔ3-TMR): 64900 M⁻¹ s⁻¹ | Kd (cpHaloΔ3-SiR): 0.00427 µM | koff (cpHaloΔ3-SiR): 0.000214 s⁻¹ | kon (cpHaloΔ3-SiR): 50000 M⁻¹ s⁻¹

AREMFQAFRT [Hpep2, previously reported split-HaloTag peptide, […]]
EC50 (cpHaloΔ): 1120 µM

ARETFQAFRT [Hpep1, previously reported split-HaloTag peptide, […]]
EC50 (cpHaloΔ): 2980 µM

SKRDAREMFQAFRT [Hpep3, previously reported split-HaloTag peptide, […]]
EC50 (cpHaloΔ): 149 µM

WKEEVIKAFKLFRD [Hpep4, previously reported split-HaloTag peptide, […]]
EC50 (cpHaloΔ): 21 µM

WREEVRKAFKLFRQ [Hpep5, previously reported split-HaloTag peptide, […]]
EC50 (cpHaloΔ): 10.7 µM

WRETFQLFRT [Hpep6, previously reported split-HaloTag peptide, […]]
EC50 (cpHaloΔ): 2.39 µM
